Assay results from patent US20220089592A1, “IMIDAZO[1,2-A]PYRIDINYL DERIVATIVES AS IRAK4 INHIBITORS” (priority 2019, published 2022).

Molecular target: T1, IRAK4 (Homo sapiens, UniProt Q9NWZ3)
T1 sequence (Q9NWZ3 1-460): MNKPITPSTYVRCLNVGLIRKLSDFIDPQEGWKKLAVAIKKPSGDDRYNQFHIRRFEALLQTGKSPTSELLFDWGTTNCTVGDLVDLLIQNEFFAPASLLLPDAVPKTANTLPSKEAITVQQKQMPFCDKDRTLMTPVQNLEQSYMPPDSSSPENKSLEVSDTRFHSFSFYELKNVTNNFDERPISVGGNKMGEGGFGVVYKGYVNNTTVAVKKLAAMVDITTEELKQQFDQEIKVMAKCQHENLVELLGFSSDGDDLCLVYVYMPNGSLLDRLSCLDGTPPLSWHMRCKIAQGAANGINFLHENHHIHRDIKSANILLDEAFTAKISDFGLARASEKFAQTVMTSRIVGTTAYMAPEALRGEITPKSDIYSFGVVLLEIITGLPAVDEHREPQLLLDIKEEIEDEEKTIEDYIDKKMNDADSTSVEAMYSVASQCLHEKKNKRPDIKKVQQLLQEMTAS
Experiment: 2-hour 1 mM ATP IRAK4 Biochemical assay (as above, but with 100 pM IRAK4 and 1 mM ATP)
Conditions: IRAK4 MSD BIOCHEMICAL (1 mM ATP) IC50 (μM), 100 pM IRAK4, 2 hours
In short: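 MSD electrochemiluminescence read-out: biotinylated peptide product bound to streptavidin plates, probed with anti-P-Thr rabbit antibody and Sulfo-Tag goat anti-rabbit. Kinase reaction used 1 mM ATP and 100 pM IRAK4 over 2 hours before EDTA quench.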

| SMILES | IC50 |
| --- | --- |
| COc1ncccc1C(=O)Nc1cc(OC(F)F)c2nc(C34COC(C)(C3)C4)cn2c1 [Example 420, N-(8-(difluoromethoxy)-2-(1-methyl-2-oxabicyclo[2.1.1]hexan-4-yl)imidazo[1,2-a]pyridin-6-yl)-2-methoxynicotinamide 2,2,2-trifluoroacetate] | 0.071 µM |
| COc1cc(NC(=O)c2cccc(C(F)F)n2)cn2cc(C34CC(F)(C3)C4)nc12 [Example 535, 6-(difluoromethyl)-N-(2-(3-fluorobicyclo[1.1.1]pentan-1-yl)-8-methoxyimidazo[1,2-a]pyridin-6-yl)picolinamide] | 0.05 µM |
| CC12CCC(c3cn4cc(NC(=O)c5coc(C6CC6)n5)nc(OC5CCC5)c4n3)(CO1)C2 (stereo not drawn) [Example 341, N-(8-cyclobutoxy-2-(1-methyl-2-oxabicyclo[2.2.1]heptan-4-yl)imidazo[1,2-a]pyrazin-6-yl)-2-cyclopropyloxazole-4-carboxamide] | 0.006 µM |
| COc1nc(NC(=O)c2cccc(C(F)F)n2)cn2cc([C@@]34CC[C@@](C)(C3)OC4)nc12 (single isomer, unassigned) [Example 277, 6-(Difluoromethyl)-N-(8-methoxy-2-((1R*,4S*)-1-methyl-2-oxabicyclo[2.2.1]heptan-4-yl)imidazo[1,2-a]pyrazin-6-yl)picolinamide] | 0.007 µM |
| COc1cc(NC(=O)c2cccc(C(F)F)n2)cn2c(F)c(C3CCOCC3)nc12 [Example 351, 6-(difluoromethyl)-N-(3-fluoro-8-methoxy-2-(tetrahydro-2H-pyran-4-yl)imidazo[1,2-a]pyridin-6-yl)picolinamide] | 0.1 µM |
| O=C(Nc1cn2cc(C3CCOCC3)nc2cc1OCC1CCCOC1)c1cccc(C(F)F)n1 (stereo not drawn) [Example 193, 6-(difluoromethyl)-N-(7-((tetrahydro-2H-pyran-3-yl)methoxy)-2-(tetrahydro-2H-pyran-4-yl)imidazo[1,2-a]pyridin-6-yl)picolinamide] | 0.001 µM |
| CCOc1cc2nc(C(C)C#N)cn2cc1NC(=O)c1cccc(C(F)F)n1 (stereo not drawn) [Example 316, N-(2-(1-cyanoethyl)-7-ethoxyimidazo[1,2-a]pyridin-6-yl)-6-(difluoromethyl)picolinamide] | 0.003 µM |
| COc1nc(NC(=O)c2cccc(C(F)F)n2)cn2cc(CCOC(F)(F)F)nc12 [Example 563, 6-(difluoromethyl)-N-(8-methoxy-2-(2-(trifluoromethoxy)ethyl)imidazo[1,2-a]pyrazin-6-yl)picolinamide 2,2,2-trifluoroacetate] | 0.046 µM |
| COc1ncccc1C(=O)Nc1cn2cc(C34COC(C)(C3)C4)nc2c(F)c1OC(C)C [Example 428, N-(8-fluoro-7-isopropoxy-2-(1-methyl-2-oxabicyclo[2.1.1]hexan-4-yl)imidazo[1,2-a]pyridin-6-yl)-2-methoxynicotinamide] | 0.01 µM |
| COc1nc(NC(=O)c2cccc(C(F)F)n2)cn2cc(C3CC3)nc12 [Example 562, N-(2-cyclopropyl-8-methoxyimidazo[1,2-a]pyrazin-6-yl)-6-(difluoromethyl)picolinamide 2,2,2-trifluoroacetate] | 0.053 µM |
| CCc1cccc(C(=O)Nc2cn3cc(C4CCOCC4)nc3cn2)n1 [Example 438, 6-ethyl-N-(2-(tetrahydro-2H-pyran-4-yl)imidazo[1,2-a]pyrazin-6-yl)picolinamide] | 0.007 µM |
| Cc1cccc(C(=O)Nc2cn3cc(C45COC(C)(C4)C5)nc3c(F)c2OC(C)C)c1F [Example 425, 2-fluoro-N-(8-fluoro-7-isopropoxy-2-(1-methyl-2-oxabicyclo[2.1.1]hexan-4-yl)imidazo[1,2-a]pyridin-6-yl)-3-methylbenzamide 2,2,2-trifluoroacetate] | 0.003 µM |
| COc1nc(NC(=O)c2cccc(C)c2F)cn2cc(C34COC(C)(C3)C4)nc12 [Example 444, 2-fluoro-N-(8-methoxy-2-(1-methyl-2-oxabicyclo[2.1.1]hexan-4-yl)imidazo[1,2-a]pyrazin-6-yl)-3-methylbenzamide] | 0.039 µM |
| CCOc1nc(C(=O)Nc2cn3cc(C45COC(C)(C4)C5)nc3c(OC)n2)co1 [Example 440, 2-ethoxy-N-(8-methoxy-2-(1-methyl-2-oxabicyclo[2.1.1]hexan-4-yl)imidazo[1,2-a]pyrazin-6-yl)oxazole-4-carboxamide] | 0.047 µM |
| COc1nc(NC(=O)c2cccc(C(F)F)n2)cn2cc(C3C4CCOCC43)nc12 (stereo not drawn) [Example 556, N-(2-(3-oxabicyclo[4.1.0]heptan-7-yl)-8-methoxyimidazo[1,2-a]pyrazin-6-yl)-6-(difluoromethyl)picolinamide 2,2,2-trifluoroacetate] | 0.005 µM |
| CC(C)Oc1cc2nc(C3CCOCC3)cn2cc1NC(=O)c1cc2ccccn2n1 [Example 381, N-(7-isopropoxy-2-(tetrahydro-2H-pyran-4-yl)imidazo[1,2-a]pyridin-6-yl)pyrazolo[1,5-a]pyridine-2-carboxamide 2,2,2-trifluoroacetate] | 0.004 µM |
| O=C(Nc1cn2cc(C3CCOCC3)nc2cn1)c1cccc2c1OCC2 [Example 275, N-(2-(tetrahydro-2H-pyran-4-yl)imidazo[1,2-a]pyrazin-6-yl)-2,3-dihydrobenzofuran-7-carboxamide] | 0.038 µM |
| COc1ncccc1C(=O)Nc1cn2cc(C34COC(C)(C3)C4)nc2nc1OC(C)C [Example 346, N-(7-isopropoxy-2-(1-methyl-2-oxabicyclo[2.1.1]hexan-4-yl)imidazo[1,2-a]pyrimidin-6-yl)-2-methoxynicotinamide] | 0.001 µM |
| Cc1nn(C)cc1-c1cn2cc(NC(=O)c3cccc(C(F)F)n3)c(OC(C)C)cc2n1 [Example 263, 6-(difluoromethyl)-N-(2-(1,3-dimethyl-1H-pyrazol-4-yl)-7-isopropoxyimidazo[1,2-a]pyridin-6-yl)picolinamide] | 0.001 µM |
| CC(C)Oc1nc2nc(C34COC(C)(C3)C4)cn2cc1NC(=O)c1csc(C(F)(F)F)n1 [Example 499, N-(7-isopropoxy-2-(1-methyl-2-oxabicyclo[2.1.1]hexan-4-yl)imidazo[1,2-a]pyrimidin-6-yl)-2-(trifluoromethyl)thiazole-4-carboxamide] | 0.001 µM |
| COc1nc(NC(=O)c2cccc(C(F)F)n2)cn2cc(C34CC(C(F)F)(C3)C4)nc12 [Example 552, 6-(difluoromethyl)-N-(2-(3-(difluoromethyl)bicyclo[1.1.1]pentan-1-yl)-8-methoxyimidazo[1,2-a]pyrazin-6-yl)picolinamide 2,2,2-trifluoroacetate] | 0.017 µM |
| CCOc1cc(NC(=O)c2cccc(C(F)(F)F)n2)cn2cc([C@H]3[C@@H]4COC[C@@H]43)nc12 [Example 416, N-(2-((1R,5S,6s)-3-oxabicyclo[3.1.0]hexan-6-yl)-8-ethoxyimidazo[1,2-a]pyridin-6-yl)-6-(trifluoromethyl)picolinamide] | 0.023 µM |
| CC(C)Oc1nc(NC(=O)c2ccnc3ccnn23)cn2cc(C34COC(C)(C3)C4)nc12 [Example 481, N-(8-isopropoxy-2-(1-methyl-2-oxabicyclo[2.1.1]hexan-4-yl)imidazo[1,2-a]pyrazin-6-yl)pyrazolo[1,5-a]pyrimidine-7-carboxamide] | 0.025 µM |
| COc1c(Cl)c(NC(=O)c2cccc(C(F)F)n2)cn2cc(C3CCOCC3)nc12 [Example 331, N-(7-chloro-8-methoxy-2-(tetrahydro-2H-pyran-4-yl)imidazo[1,2-a]pyridin-6-yl)-6-(difluoromethyl)picolinamide] | 0.031 µM |
| O=C(Nc1cn2cc(C3CCOCC3)nc2cc1Cl)c1cccc(C(F)F)n1 [Example 405, N-(7-chloro-2-(tetrahydro-2H-pyran-4-yl)imidazo[1,2-a]pyridin-6-yl)-6-(difluoromethyl)picolinamide 2,2,2-trifluoroacetate] | 0.006 µM |
| CCOc1c(NC(=O)c2cccc(C(F)F)n2)cn2cc(C3CCOCC3)nc2c1Cl [Example 272, N-(8-chloro-7-ethoxy-2-(tetrahydro-2H-pyran-4-yl)imidazo[1,2-a]pyridin-6-yl)-6-(difluoromethyl)picolinamide] | 0.003 µM |
| CCO[C@H]1C[C@H](Oc2cc3nc(C4CCOCC4)cn3cc2NC(=O)c2cccc(C(F)F)n2)C1 [Example 190, 6-(difluoromethyl)-N-(7-((1R*,3R*)-3-ethoxycyclobutoxy)-2-(tetrahydro-2H-pyran-4-yl)imidazo[1,2-a]pyridin-6-yl)picolinamide] | 0.001 µM |
| COc1ncccc1C(=O)Nc1cn2cc(C34COC(C)(C3)C4)nc2cc1OC(F)F [Example 396, N-(7-(difluoromethoxy)-2-(1-methyl-2-oxabicyclo[2.1.1]hexan-4-yl)imidazo[1,2-a]pyridin-6-yl)-2-methoxynicotinamide 2,2,2-trifluoroacetate] | 0.002 µM |
| COc1nc(NC(=O)c2cccc(C(F)(F)F)n2)cn2cc(C3CCCOC3)nc12 (single isomer, unassigned) [Example 299, N-(8-methoxy-2-(tetrahydro-2H-pyran-3-yl)imidazo[1,2-a]pyrazin-6-yl)-6-(trifluoromethyl)picolinamide] | 0.007 µM |
| COc1cccc(C(=O)Nc2cn3cc(C45COC(C)(C4)C5)nc3c(F)c2OC(C)C)n1 [Example 426, N-(8-fluoro-7-isopropoxy-2-(1-methyl-2-oxabicyclo[2.1.1]hexan-4-yl)imidazo[1,2-a]pyridin-6-yl)-6-methoxypicolinamide] | 0.002 µM |
